In PubChem BioAssay AID2060619 (Molecular Pharmacology Branch, DTP, NCI, 2025):

Tested on: 323965-272-R-J2-PDC complex spheroid viability
Experiment: Anticancer human tumor 323965-272-R-J2-PDC patient-derived pancreatic carcinoma cell line growth inhibition [CLK]
Settings: for IC50: curve of first compound; for viability, T/C: stronger effect = lower value
Description: A high-throughput screen of multi-cell type tumor spheroids was designed to identify active combinations of […] and targeted small molecules. Complex spheroids include a stromal component modeled by human endothelial cells (HUVEC) and fibroblasts modeled by human mesenchymal stem cells (MSCs). The concentration ranges selected for each drug and investigational agent were based upon clinically achievable concentrations if the clinical Cmax of the agent was known.
Compounds. The drugs and investigational agents: cirtuvivint (SM08502; NSC835563), CC-671 (NSC850746), vemurafenib (NSC761431), tapotoclax (NSC804041), sotorasib (NSC818433), adagrasib (NSC831453), MRTX-1133 (NSC836407), BAY2416964 (NSC825713), copanlisib (NSC816437), inavolisib (NSC800729), abemaciclib (NSC768073), osimertinib (NSC779217), entinostat (NSC756642), eltanexor (KPT-8602, NSC794443), venetoclax (NSC766270), ceralasertib (NSC777638), bortezomib (NSC756655), olaparib (NSC753686), talazoparib (NSC767125), alisertib (NSC759677), peposertib (NSC802822), gemcitabine (NSC613327), 5-fluorouracil (NSC19893), SN-38 (NSC673596), oxaliplatin (NSC266046), paclitaxel (NSC125973), and doxorubicin (NSC123127), were obtained from the National Cancer Institute (NCI) Developmental Therapeutics Program Chemical Repository. The FDA-approved anticancer drug set is available from the Developmental Therapeutics Program at https://dtp.cancer.gov/organization/dscb/obtaining/available plates.htm. […] The stock solutions were prepared in dimethyl sulfoxide (DMSO, Sigma-Aldrich, St. Louis, MO, cat. D2650), except for the platinum complexes which were prepared in saline (Quality Biological, Gaithersburg, MD, cat. 114-055-101), at 800-fold the tested concentration and stored at -70 degrees C prior to their use. All drugs and investigational agents were tested over a range starting from a high concentration at or near the clinical Cmax and decreasing in half-log increments. If the clinical Cmax for an agent had not been determined, the highest concentration tested was 10 microM.
Cell Culture. All cells were maintained in an incubator at 37 degrees C and 5% CO2 with 95% humidity. The PDC lines were cultured according to standard operating procedures established by the NCI PDMR. Briefly, all PDCs were thawed and cultured in Matrigel-coated flasks prepared with a working solution of 1X Ham's F-12 nutrient mix, without supplementation (Invitrogen, Waltham, MA, cat. 11765054), 100 U/mL penicillin-streptomycin (Invitrogen, cat. 15140122), and 2.5% Matrigel (Corning Inc., Corning, NY, cat. 354248) for the first three passages. The 947758-054-R-J2-PDC line was cultured in 6B/Colon 1A media, which includes advanced DMEM/F-12 (Thermo Fisher Scientific, cat. 12634028), 10 mM HEPES (Thermo Fisher Scientific, cat. 15630080), 1X GlutaMAX supplement (Thermo Fisher Scientific, cat. 35050061), 0.1 mg/mL primocin (InvivoGen, cat. ant-pm-2), 10% defined fetal bovine serum, heat inactivated (HyClone Laboratories Inc., cat. SH30070.03HI), 1.25 mM N-Acetyl-L-cysteine (Sigma-Aldrich, cat. A9165), 10 mM nicotinamide (Sigma-Aldrich, cat. N0636), 1X B-27 supplement (Thermo Fisher Scientific, cat. 17504044), 1X N-2 supplement (Thermo Fisher Scientific, cat. 17502048), and 10 microM Y-27632 dihydrochloride (Tocris Bioscience, cat. 1254). The 876862-298-R-J1-PDC was cultured in 6E media, which includes all 6B/Colon 1A media components plus 50% L-WRN conditioned media (ATCC, cat. CRL-3276), 50 ng/mL recombinant human EGF recombinant protein (hEGF; Thermo Fisher Scientific, cat. PHG0311), 10 ng/mL recombinant human fibroblast growth factor 10 (hGFG-10; PeproTech, cat. 100-26), 1 ng/mL recombinant human fibroblast growth factor 2 (hFGF-2; PeproTech, cat. 100-18B), and 1 µM prostaglandin E2 (PGE2; Tocris, cat. 2296). The 227483-062-R1-J1-PDC line was cultured in Panc media, containing all 6E components except hFGF-2, with the addition of 500 nM SB-431542 (Selleckchem, cat. S1067) and 10 nM gastrin (Tocris, cat. 3006). […]

[1] = second compound 0.0316 µM, first compound 0.0316 µM
[2] = second compound 0.0316 µM, first compound 0.1 µM
[3] = second compound 0.0316 µM, first compound 0.316 µM
[4] = second compound 0.0316 µM, first compound 1 µM
[5] = second compound 0.0316 µM, first compound 3.16 µM
[6] = second compound 0.0316 µM, first compound 10 µM
[7] = second compound 0.1 µM, first compound 0.0316 µM
[8] = second compound 0.1 µM, first compound 0.1 µM
[9] = second compound 0.1 µM, first compound 0.316 µM
[10] = second compound 0.1 µM, first compound 1 µM
[11] = second compound 0.1 µM, first compound 3.16 µM
[12] = second compound 0.1 µM, first compound 10 µM
[13] = second compound 0.316 µM, first compound 0.0316 µM
[14] = second compound 0.316 µM, first compound 0.1 µM
[15] = second compound 0.316 µM, first compound 0.316 µM
[16] = second compound 0.316 µM, first compound 1 µM
[17] = second compound 0.316 µM, first compound 3.16 µM
[18] = second compound 0.316 µM, first compound 10 µM
[19] = second compound 1 µM, first compound 0.0316 µM
[20] = second compound 1 µM, first compound 0.1 µM
[21] = second compound 1 µM, first compound 0.316 µM
[22] = second compound 1 µM, first compound 1 µM
[23] = second compound 1 µM, first compound 3.16 µM
[24] = second compound 1 µM, first compound 10 µM
[25] = second compound 3.16 µM, first compound 0.0316 µM
[26] = second compound 3.16 µM, first compound 0.1 µM
[27] = second compound 3.16 µM, first compound 0.316 µM
[28] = second compound 3.16 µM, first compound 1 µM
[29] = second compound 3.16 µM, first compound 3.16 µM
[30] = second compound 3.16 µM, first compound 10 µM
[31] = second compound 10 µM, first compound 0.0316 µM
[32] = second compound 10 µM, first compound 0.1 µM
[33] = second compound 10 µM, first compound 0.316 µM
[34] = second compound 10 µM, first compound 1 µM
[35] = second compound 10 µM, first compound 3.16 µM
[36] = second compound 10 µM, first compound 10 µM
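Further: spheroids exposed to agents for seven days before readout.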
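Wherever viability, T/C is given: percent of DMSO vehicle control wells so 100% = untreated growth.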

C#Cc1c(F)ccc2cc(O)cc(-c3ncc4c(N5CC6CCC(C5)N6)nc(OCC56CCCN5CC(F)C6)nc4c3F)c12 (stereo unspecified) + CN1CCN(c2cc(C(=O)Nc3cc4cc(-c5cnn(C)c5)ccc4cn3)ccn2)CC1
IC50 (second compound 0.0316 µM): > 10000 nM
IC50 (second compound 0.1 µM): 3050 nM
IC50 (second compound 0.316 µM): < 31.6 nM
IC50 (second compound 1 µM): < 31.6 nM
IC50 (second compound 3.16 µM): < 31.6 nM
IC50 (second compound 10 µM): < 31.6 nM
viability, T/C [1]: 101%
viability, T/C [2]: 101%
viability, T/C [3]: 101%
viability, T/C [4]: 95.8%
viability, T/C [5]: 67.1%
viability, T/C [6]: 50.9%
viability, T/C [7]: 68.8%
viability, T/C [8]: 73.2%
viability, T/C [9]: 71.1%
viability, T/C [10]: 63.3%
viability, T/C [11]: 49.9%
viability, T/C [12]: 42.6%
viability, T/C [13]: 28.4%
viability, T/C [14]: 25.6%
viability, T/C [15]: 24.8%
viability, T/C [16]: 22.9%
viability, T/C [17]: 17.8%
viability, T/C [18]: 15.1%
viability, T/C [19]: 3.55%
viability, T/C [20]: 3.52%
viability, T/C [21]: 3.35%
viability, T/C [22]: 3.07%
viability, T/C [23]: 2.52%
viability, T/C [24]: 2.87%
viability, T/C [25]: 3.72%
viability, T/C [26]: 4.19%
viability, T/C [27]: 3.39%
viability, T/C [28]: 3.07%
viability, T/C [29]: 3.51%
viability, T/C [30]: 5.09%
viability, T/C [31]: 4.24%
viability, T/C [32]: 4.08%
viability, T/C [33]: 5.09%
viability, T/C [34]: 3.16%
viability, T/C [35]: 3.48%
viability, T/C [36]: 3.19%

C=C(F)C(=O)N1CCN(c2nc(OCC3CCCN3C)nc3c2CCN(c2cccc4cccc(Cl)c24)C3)CC1CC#N (stereo unspecified) + CN1CCN(c2cc(C(=O)Nc3cc4cc(-c5cnn(C)c5)ccc4cn3)ccn2)CC1
IC50 (second compound 0.0316 µM): > 10000 nM
IC50 (second compound 0.1 µM): 31.6 nM
IC50 (second compound 0.316 µM): < 31.6 nM
IC50 (second compound 1 µM): < 31.6 nM
IC50 (second compound 3.16 µM): < 31.6 nM
IC50 (second compound 10 µM): < 31.6 nM
viability, T/C [1]: 59%
viability, T/C [2]: 56.5%
viability, T/C [3]: 48.5%
viability, T/C [4]: 74.6%
viability, T/C [5]: 84.4%
viability, T/C [6]: 29.1%
viability, T/C [7]: 45.1%
viability, T/C [8]: 44.3%
viability, T/C [9]: 38%
viability, T/C [10]: 44.3%
viability, T/C [11]: 58.5%
viability, T/C [12]: 25.3%
viability, T/C [13]: 15.6%
viability, T/C [14]: 14.8%
viability, T/C [15]: 14.6%
viability, T/C [16]: 15.5%
viability, T/C [17]: 13.2%
viability, T/C [18]: 5.86%
viability, T/C [19]: 2.38%
viability, T/C [20]: 2.52%
viability, T/C [21]: 2.56%
viability, T/C [22]: 2.45%
viability, T/C [23]: 1.97%
viability, T/C [24]: 0.73%
viability, T/C [25]: 2.89%
viability, T/C [26]: 2.94%
viability, T/C [27]: 2.9%
viability, T/C [28]: 2.86%
viability, T/C [29]: 4.1%
viability, T/C [30]: 0.62%
viability, T/C [31]: 3.59%
viability, T/C [32]: 3.43%
viability, T/C [33]: 2.46%
viability, T/C [34]: 2.58%
viability, T/C [35]: 3.56%
viability, T/C [36]: 0.3%

CC(CO)NC(=O)c1cc(-c2ccc(Cl)cc2)nn(-c2cnn(C)c2)c1=O (stereo unspecified) + CN1CCN(c2cc(C(=O)Nc3cc4cc(-c5cnn(C)c5)ccc4cn3)ccn2)CC1
IC50 (second compound 0.0316 µM): > 10000 nM
IC50 (second compound 0.1 µM): > 10000 nM
IC50 (second compound 0.316 µM): < 31.6 nM
IC50 (second compound 1 µM): < 31.6 nM
IC50 (second compound 3.16 µM): < 31.6 nM
IC50 (second compound 10 µM): < 31.6 nM
viability, T/C [1]: 97.3%
viability, T/C [2]: 102%
viability, T/C [3]: 103%
viability, T/C [4]: 87.4%
viability, T/C [5]: 112%
viability, T/C [6]: 113%
viability, T/C [7]: 68%
viability, T/C [8]: 80.5%
viability, T/C [9]: 83.1%
viability, T/C [10]: 72.5%
viability, T/C [11]: 76%
viability, T/C [12]: 89.5%
viability, T/C [13]: 25.8%
viability, T/C [14]: 27.2%
viability, T/C [15]: 25%
viability, T/C [16]: 22.3%
viability, T/C [17]: 28.2%
viability, T/C [18]: 32.8%
viability, T/C [19]: 3.75%
viability, T/C [20]: 3.59%
viability, T/C [21]: 4.21%
viability, T/C [22]: 3.61%
viability, T/C [23]: 3.03%
viability, T/C [24]: 3.2%
viability, T/C [25]: 4.17%
viability, T/C [26]: 3.62%
viability, T/C [27]: 3.4%
viability, T/C [28]: 3.82%
viability, T/C [29]: 4.87%
viability, T/C [30]: 4.3%
viability, T/C [31]: 4.55%
viability, T/C [32]: 5.29%
viability, T/C [33]: 4.22%
viability, T/C [34]: 3.24%
viability, T/C [35]: 3.64%
viability, T/C [36]: 3.17%
